Data as given in patent US4965266A, “Heteroarylcarboxamide derivatives, process for preparing the same and pharmaceutical composition containing the same” (Dainippon Pharmaceutical Co., Ltd., priority 1987, dated 1990).
Counter-ions that a name gives are not always drawn.

Tests used:
5-lipoxygenase = target: T1, 5-lipoxygenase (Cavia porcellus, UniProt A0A286X958); assay: Inhibitory effect on 5-lipoxygenase activity (antiallergic activity in vitro); type: biochemical, guinea pig (male Hartley); conditions: for inhibition at 10 µM: 10^-5 M test compound, guinea pig peritoneal exudate cell cytosol, mean of 3 to 6 experiments
T1 construct: A cytosol fraction of peritoneal exudate cell from male Hartley guinea pig (weighing 400 to 700 g) was used as 5-lipoxygenase; endogenous in cells; host or cells: cytosol fraction of peritoneal exudate cells from male Hartley guinea pig
T1 sequence (A0A286X958 1-674): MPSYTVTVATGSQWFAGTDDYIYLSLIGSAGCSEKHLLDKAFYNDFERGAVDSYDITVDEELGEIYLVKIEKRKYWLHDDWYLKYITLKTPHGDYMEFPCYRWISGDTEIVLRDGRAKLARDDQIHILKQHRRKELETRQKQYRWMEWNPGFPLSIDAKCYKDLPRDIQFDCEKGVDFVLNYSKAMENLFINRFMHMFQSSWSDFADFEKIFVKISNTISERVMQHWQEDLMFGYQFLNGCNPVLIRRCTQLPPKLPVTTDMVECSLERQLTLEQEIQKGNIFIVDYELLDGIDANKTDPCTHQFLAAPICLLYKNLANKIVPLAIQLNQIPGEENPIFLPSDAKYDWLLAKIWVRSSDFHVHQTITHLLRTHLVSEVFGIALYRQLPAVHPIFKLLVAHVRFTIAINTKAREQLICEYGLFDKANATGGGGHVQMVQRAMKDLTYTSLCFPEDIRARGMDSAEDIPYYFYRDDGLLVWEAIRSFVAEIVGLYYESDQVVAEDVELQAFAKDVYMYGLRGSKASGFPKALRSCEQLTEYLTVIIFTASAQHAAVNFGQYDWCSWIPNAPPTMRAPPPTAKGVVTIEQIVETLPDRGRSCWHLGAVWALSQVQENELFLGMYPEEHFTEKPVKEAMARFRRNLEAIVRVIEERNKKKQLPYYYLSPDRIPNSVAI
Description: This experiment was carried out by the method of Miyamoto and Obata ["Perspectives in Prostaglandin Research", ed. by Y. Shiokawa et al., Excerpta Medica, Amsterdam-Oxford-Princeton, 1983, p.78] with minor modifications.
A cytosol fraction of peritoneal exudate cell from male Hartley guinea pig (weighing 400 to 700 g) was used as 5-lipoxygenase. As a standard reaction solution, a mixture of 50 mM potassium phosphate buffer (pH 7.4), 1 mM calcium chloride, 1 mM glutathione, 1 mM adenosine triphosphate, 10 μM indomethacin and the enzyme was used. To the reaction solution was added 0.02 μCi of [1-^14 C] arachidonic acid and the mixture was incubated at 30° C. for 5 minutes, followed by adding 0.6 ml of a cold solution comprising diethyl ether methanol -0.2 M citric acid (30 : 4 : 1) to terminate the reaction. The organic layer (300 μ1) was subjected to a thin layer chromatography plate on silica gel 60 F254 (E. Merck, West Germany) and, after developing, a radioactivity was measured by means of radiochromatogram scanner (Packard, U.S.A.) 5-Lipoxygenase activity was calculated by the following equation. [formula]
The results are shown in Table 1 in terms of mean value of 3 to 6 experiments.

[1] = tested on: passive cutaneous anaphylaxis (PCA); assay: Inhibitory effect on passive cutaneous anaphylaxis (PCA) (antiallergic activity in vivo); parameters: species or system rat (male Wistar); conditions: 20 mg/kg oral, 1 hour prior to dye injection; rats; vs control group
Description: Male Wistar rats (weighing 130 to 190 g) were injected with a dilute solution (0.1 ml) of mouse antiserum to egg albumin, which was prepared by the method of Levine et al. [Int. Arch. Allergy Appl. […] Forty-eight hours later, 0.5% Evan's blue solution (1 ml) containing 2 mg of egg albumin was intravenously injected to tail vein of the animal. Thirty minutes after the dye injection, abdominal skin was peeled off and the area of the blueing lesions was measured. In each rat, a mean value of the two lesions was regarded as the response of the rat. The test compounds in a dose of 20 mg/kg, dissolved or suspended in a 0.5% aqueous tragacanth solution, were orally administered 1 hour prior to the dye injection.

ddY mice = assay: Acute toxicity; type: in vivo; conditions: 1000 mg/kg oral; male ddY mice, 7 days observation
Source text: Five male ddY mice weighing 25 to 29 g were used in each group.

| Structure (SMILES) | inhibition at 10 µM (5-lipoxygenase) | other results |
| --- | --- | --- |
| CC(C)c1ccc2ncc(C(=O)NCCCCN3CCN(C(c4ccccc4)c4ccccc4)CC3)c(O)c2c1 [Example 17] | 95.3% | – |
| COc1ccc2ncc(C(=O)NCCCCN3CCN(C(c4ccccc4)c4ccccc4)CC3)c(O)c2c1 [Example 18] | 93.2% | – |
| COc1c(C(=O)NCCCCN2CCN(C(c3ccccc3)c3ccccc3)CC2)cnc2ccccc12 [Example 5, N-[4-(4-diphenylmethyl-1-piperazinyl)butyl]-4-methoxyquinoline-3-carboxamide.cndot.1/4 hydrate] | 80.3% | – |
| COc1ccc2c(O)c(C(=O)NCCCCN3CCN(C(c4ccccc4)c4ccccc4)CC3)cnc2c1 [Example 19] | 92.8% | – |
| N#Cc1ccc2ncc(C(=O)NCCCCN3CCN(C(c4ccccc4)c4ccccc4)CC3)c(O)c2c1 [Example 21] | 67.9% | – |
| Cc1ccc(C(=O)NCCCCN2CCN(C(c3ccccc3)c3ccccc3)CC2)c(O)n1 [Example 10, N-[4-(4-diphenylmethyl-1-piperazinyl)butyl]-2-hydroxy-6-methylpyridine-3-carboxamide] | – | PCA inhibition (%) [1]: 84.8% |
| COc1cccc2c(O)c(C(=O)NCCCCN3CCC(=C(c4ccccc4)c4ccccc4)CC3)cnc12 [Example 8, N-[4-(4-diphenylmethylene-1piperidyl)butyl]-4-hydroxy-8-methoxyquinoline-3-carboxamide.cndot.fumarate] | 93.3% | – |
| Cc1ccc2c(O)c(C(=O)NCCCCN3CCC(=C(c4ccccc4)c4ccccc4)CC3)cnc2n1 [Example 1, N-[4-(4-diphenylmethylene-1-piperidyl)butyl]-4-hydroxy-7-methyl-1,8-naphthyridine-3-carboxamide.cndot.1/4 hydrate] | 96.8% | death of the animals (ddY mice): no death was observed; PCA inhibition (%) [1]: 88.3% |
| Cc1cccc2c(O)c(C(=O)NCCCCN3CCN(C(c4ccccc4)c4ccccc4)CC3)cnc12 [Example 16] | 90.6% | – |
| Cc1ccc2ncc(C(=O)NCCCCN3CCN(C(c4ccccc4)c4ccccc4)CC3)c(O)c2c1 [Example 14] | 93.7% | – |
| N#Cc1cccc2ncc(C(=O)NCCCCN3CCN(C(c4ccccc4)c4ccccc4)CC3)c(O)c12 [Example 7 (5cyano compound), N-[4-(4-diphenylmethyl-1-piperazinyl)butyl]-5-cyano-4-hydroxyquinoline-3-carboxamide] | 92.1% | – |
| CN1CCC(=C2c3ccccc3CC(=O)c3sccc32)CC1 [Ketotifen fumarate, reference compound] | – | 5-lipoxygenase inhibitory activity (in words) (5-lipoxygenase; ketotifen fumarate at 10^-4 M): did not show any significant inhibitory activity; PCA inhibition (%) [1]: 54.7% |
| N#Cc1ccc2c(O)c(C(=O)NCCCCN3CCN(C(c4ccccc4)c4ccccc4)CC3)cnc2c1 [Example 7 (7cyano compound), N-[4-(4-diphenylmethyl-1-piperazinyl)butyl]-7-cyano-4-hydroxyquinoline-3-carboxamide] | 84.7% | – |
| Cc1ccc2c(S)c(C(=O)NCCCCN3CCN(C(c4ccccc4)c4ccccc4)CC3)cnc2n1 [Example 9, N-[4-(4-diphenylmethyl-1-piperazinyl)butyl]-4-mercapto-7-methyl-1,8-naphthyridine-3-carboxamide.cndot.fumarate.cndot.1/2 hydratet] | 88.3% | – |
| Cc1ccc2c(O)c(C(=O)NCCCCN3CCN(C(c4ccccc4)c4ccccc4)CC3)cnc2n1 [Example 2, N-[4-(4-diphenylmethyl-1-piperazinyl)butyl]-4-hydroxy-7-methyl-1,8-naphthyridine-3-carboxamide.cndot.1/2 hydrate] | 79.6% | PCA inhibition (%) [1]: 80.7% |
| O=C(NCCCCN1CCN(C(c2ccccc2)c2ccccc2)CC1)c1cnc2cccc(O)c2c1O [Example 4, N-[4-(4-diphenylmethyl-1-piperazinyl)butyl]-4,5-dihydroxyquinoline-3-carboxamide] | 95.4% | – |
| CCCCOc1cccc2c(O)c(C(=O)NCCCCN3CCN(C(c4ccccc4)c4ccccc4)CC3)cnc12 [Example 20] | 94.8% | – |
| CC(C)c1ccc(C(=O)NCCCCN2CCN(C(c3ccccc3)c3ccccc3)CC2)c(O)n1 [Example 6, N-[4-(4-diphenylmethyl-1-piperazinyl)butyl]-2-hydroxy-6-isopropylpyridine-3carboxamide] | 75.1% | death of the animals (ddY mice): no death was observed; PCA inhibition (%) [1]: 93.0% |
| O=C(NCCCCN1CCN(C(c2ccccc2)c2ccccc2)CC1)c1cnc2ccccc2c1O [Example 12] | 83.7% | – |
| Cc1ccc2c(O)c(C(=O)NCCCCN3CCN(C(c4ccccc4)c4ccccc4)CC3)cnc2c1 [Example 15] | 93% | – |
| COc1cccc2c(O)c(C(=O)NCCCCN3CCN(C(c4ccccc4)c4ccccc4)CC3)cnc12 [Example 3, N-[4-(4-diphenylmethyl-1-piperazinyl)butyl]-4-hydroxy-8-methoxyquinoline-3-carboxamide] | 91.3% | death of the animals (ddY mice): no death was observed; PCA inhibition (%) [1]: 56.0% |
